Source: US20120220577A1, “GLYCINE B ANTAGONISTS” (Merz Pharma GmbH & Co KgaA, priority 2009, published 2012)

biological target: T1, glycine binding pocket of the NMDA receptor (Rattus norvegicus, UniProt P35439); experiment: [3H]MDL-105,519 displacement studies (rat cortical membranes); details: displacement of 2 nM [3H]-MDL-105,519, rat cortical membranes; read-out: NMDA-MDL 105519-r-CTX - IC50
T1 construct: For isolation of the cell membranes, the cortices are homogenized; from tissue; host or cells: rat cerebral cortex membranes (male Sprague-Dawley)
Protocol: Anaesthetised male Sprague-Dawley rats (200-250 g, Janvier, Le Genest-Isle, France) are decapitated and their brains removed rapidly. […] For isolation of the cell membranes, the cortices are homogenized in 20 volumes of ice-cold 0.32 M sucrose (Sigma-Aldrich, Taufkirchen, Germany) using a glass-Teflon homogenizer. The homogenate is centrifuged at 1000×g for 10 minutes, the pellet is discarded and the supernatant centrifuged at 20,000×g for 20 minutes. The resulting pellet is re-suspended in 20 volumes of distilled water and centrifuged for 20 minutes at 8000×g. The supernatant and the buffy coat are then centrifuged three times (48,000×g for 20 minutes) in the presence of 50 mM Tris-HCl, pH 8.0 (assay buffer). All centrifugation steps are carried out at 4° C. After resuspension in 5 volumes of 50 mM Tris-HCl, pH 7.5, the membrane suspension is frozen rapidly at −80° C. On the day of assay, the membranes are thawed and washed four times by resuspension in 50 mM Tris-HCl, pH 7.5, and centrifugation at 48,000×g for 20 minutes. The final pellet is suspended in assay buffer. […] The final protein concentration used for our studies is 400 μg/ml.
A robotic system designed for binding assays (Tecan Deutschland GmbH, Crailsheim, Germany) is loaded with the membrane solution, solutions for bound control (buffer/DMSO 20%), unlabeled glycine (1 mM) for evaluation of non-specific binding, all compounds to be tested (at 20-fold concentrations), radioligand and respective 96-well plates.
The protein/receptor concentration is held constant whereas the amount of specific bound radioligand is determined using increasing concentrations of ligand.
Firstly, the assay plates are loaded with membrane solution and are shaken at 4° C. The mother plates are then prepared by pipetting the compounds into assay buffer/20% DMSO to obtain the desired final concentrations (dose response curve with five different concentrations, e.g. 10, 3, 1, 0.3, and 0.1 μM). After transferring radioligand into the assay plates, the compounds are added (including the bound and the non-specific binding control). The final DMSO concentration is 1%. The assay plates are incubated and shaken at 4° C. for 1 h, before the mixture is exhausted as rapidly as possible via a vacuum manifold using the Multiscreen HTS glass fibre (type B) filter plates (Millipore, Schwalbach, Germany) under a constant vacuum of 450 mbar. The membranes are washed four times with cold assay buffer ([…]). 50 μL of Ultima Gold scintillation cocktail (PerkinElmer, Rodgau-Jügesheim, Germany) is added to the wet filter plates and incubated at room temperature overnight before counting the disintegration per minutes using a liquid scintillation counter (MicroBeta, PerkinElmer, Rodgau-Jügesheim, Germany).
The residual radioactivity after displacement of the test compound (n=5) is then corrected with respect to the set controls.

`O=C(COc1cc(C(=O)O)cc2cc(Cl)cc(Cl)c12)N[C@@H]1C[C@H]1c1ccccc1` (relative stereo) [Example 66, 5,7-Dichloro-4-[(trans-2-phenyl-cyclopropylcarbamoyl)-methoxy]-naphthalene-2-carboxylic acid] and `O=C(COc1cc(C(=O)O)cc2cc(Cl)cc(Cl)c12)Nc1ccccc1` [Example 33, 5,7-Dichloro-4-phenylcarbamoylmethoxynaphthalene-2-carboxylic acid] are within 1.5-fold of each other in IC50: 0.935 µM for the first, 0.769 µM for the second.

Going from `COc1ccc(C(=O)COc2cc(C(=O)O)cc3cc(Cl)cc(Cl)c23)cc1` [Example 4, 5,7-Dichloro-4-[2-(4-methoxyphenyl)-2-oxo-ethoxy]-naphthalene-2-carboxylic acid] to `COc1cccc(NC(=O)COc2cc(C(=O)O)cc3cc(Cl)cc(Cl)c23)c1` [Example 6, 5,7-Dichloro-4-[(3-methoxyphenylcarbamoyl)-methoxy]-naphthalene-2-carboxylic acid], the IC50 falls from 6.74 µM to 1.79 µM (3.8-fold).

`O=C(COc1cc(C(=O)O)cc2cc(Cl)cc(Cl)c12)Nc1ccc(CO)cc1` [Example 9, 5,7-Dichloro-4-[(4-hydroxymethyl-phenylcarbamoyl)-methoxy]-naphthalene-2-carboxylic acid] and `O=C(COc1cc(C(=O)O)cc2cc(Cl)cc(Cl)c12)Nc1cccc(CO)c1` [Example 10, 5,7-Dichloro-4-[(3-hydroxymethylphenylcarbamoyl)-methoxy]-naphthalene-2-carboxylic acid] are within 1.5-fold of each other in IC50: 0.404 µM for the first, 0.351 µM for the second.

Going from `O=C(COc1cc(C(=O)O)cc2cc(Cl)cc(Cl)c12)N[C@@H](CO)c1ccccc1` [Example 29] to `O=C(O)CC(Cc1ccccc1)NC(=O)COc1cc(C(=O)O)cc2cc(Cl)cc(Cl)c12` (stereo not shown) [Example 37, 4-[(1-Carboxymethyl-2-phenylethylcarbamoyl)-methoxy]-5,7-dichloronaphthalene-2-carboxylic acid], the IC50 rises from 0.983 µM to 4.78 µM (4.9-fold).

First: O=C(O)c1cc(OCC(=O)N2CCCC2C(=O)O)c2c(Cl)cc(Cl)cc2c1 (stereo not shown) [Example 35, 1-[2-(3-Carboxy-6,8-dichloronaphthalen-1-yloxy)-acetyl]-pyrrolidine-2-carboxylic acid]
Second: O=C(O)c1cc(OCC(=O)N2CC(C(=O)O)Oc3ccccc32)c2c(Cl)cc(Cl)cc2c1 (stereo not shown) [Example 43, 4-[2-(3-Carboxy-6,8-dichloronaphthalen-1-yloxy)-acetyl]-3,4-dihydro-2H-benzo[1,4]oxazine-2-carboxylic acid]
The IC50 of the first is 2.2-fold lower: 1.42 µM for the first, 3.07 µM for the second. The first is the more potent here.

Going from `CN(C(=O)COc1cc(C(=O)O)cc2cc(Cl)cc(Cl)c12)c1cccc(CC(=O)O)c1` [Example 40, 4-{[(3-Carboxymethylphenyl)-methyl-carbamoyl]-methoxy}-5,7-dichloronaphthalene-2-carboxylic acid] to `COc1cccc(CO)c1NC(=O)COc1cc(C(=O)O)cc2cc(Cl)cc(Cl)c12` [Example 76, 5,7-Dichloro-4-[(2-hydroxymethyl-6-methoxy-phenylcarbamoyl)-methoxy]-naphthalene-2-carboxylic acid], the IC50 falls from 3.58 µM to 1.22 µM (2.9-fold). The second is the more potent here.

`O=C(O)COc1ccc(NC(=O)COc2cc(C(=O)O)cc3cc(Cl)cc(Cl)c23)cc1` [Example 44, 4-[(4-Carboxymethoxy-phenylcarbamoyl)-methoxy]-5,7-dichloro-naphthalene-2-carboxylic acid] and `COC(=O)c1ccccc1NC(=O)COc1cc(C(=O)O)cc2cc(Cl)cc(Cl)c12` [Example 45, 5,7-Dichloro-4-[(2-methoxycarbonyl-phenylcarbamoyl)-methoxy]-naphthalene-2-carboxylic acid] are within 1.5-fold of each other in IC50: 3.39 µM for the first, 4.27 µM for the second.

Compared with `O=C(COc1cc(C(=O)O)cc2cc(Cl)cc(Cl)c12)NCc1ccccc1OC(F)(F)F` [Example 61, 5,7-Dichloro-4-[(2-trifluoromethoxy-benzylcarbamoyl)-methoxy]-naphthalene-2-carboxylic acid], `CN(C)CCOc1ccc(NC(=O)COc2cc(C(=O)O)cc3cc(Cl)cc(Cl)c23)cc1CO` [Example 87, 5,7-Dichloro-4-{[4-(2-dimethylamino-ethoxy)-3-hydroxymethyl-phenylcarbamoyl]-methoxy}-naphthalene-2-carboxylic acid] is 4.8-fold lower in IC50: 1.56 µM for the first, 0.324 µM for the second.
